Results published in patent US10123985B2, “Therapeutic strategies for treating mitochondrial disorders” (Whitehead Institute for Biomedical Research, priority 2015, dated 2018).
Entries after “also recorded” stand apart in the source; their conditions may differ.

Experiments:
143B cells [1] = assay: Measurement of NAD+/NADH (NAD/NADH Glo) in 143B cells with respiration inhibitors; format: cell-based; settings: oligomycin with or without FCCP
Experimental: NAD^+/NADH measurements were done using a modified version of manufacturer instructions of NAD/NADH Glo Assay (Promega). Cells were plated and treated as for proliferation assays and cell extracts were taken 6 hours after treatment. For extraction, cells were quickly washed 3 times in ice cold PBS, extracted in 100 μL ice cold lysis buffer (1% Dodecyltrimethylammonium bromide (DTAB) in 0.2 N NaOH diluted 1:1 with PBS), and immediately frozen at −80° C. To measure NADH, 20 μL of sample was moved to PCR tubes and incubated at 75° C. for 30 min, where the basic conditions will selectively degrade NAD^+. To measure NAD^+, 20 μL of the samples was moved to PCR tubes containing 20 μL lysis buffer and 20 μL 0.4 N HCl and incubated at 60° C. for 15 min, where acidic conditions will degrade NADH. Following incubations, samples were allowed to equilibrate to room temperature and then quenched by neutralizing with 20 μL 0.25 M Tris in 0.2 N HCl (NADH) or 20 μL 0.5 M Tris base (NAD^+). Manufacturer instructions were followed thereafter to measure NAD^+/NADH.

143B cells [2] = assay: Proliferation assay of wild-type 143B cells treated with respiration inhibitors; format: cell-based; settings: for Proliferation of rotenone treated 143B cells: asparagine
Experimental: (§1) 143B, A172, H1299, HeLa, U87 and MEF cells were cultured in Dulbecco's Modified Eagle's Medium (DMEM) (Gibco) supplemented with 10% fetal bovine serum (FBS) and penicillin-streptomycin. FL5.12 cells were cultured in the same medium and supplemented with 5 μg/mL recombinant mouse IL-3 (R&D Systems). 143B cybrid cell lines (WT Cybrid and CytB) were cultured in DMEM with 10% FBS, penicillin-streptomycin, and 0.1 mg/mL uridine. All cells incubated at 37° C. with 5% CO2.
(§2) Adherent cell lines growing in log phase were trypsinized, counted, and plated onto 6 well dishes (Corning) in 2 mL complete DMEM and incubated overnight. Initial seeding density was 2E4 cells per well for 143B, A172, H1299, HeLa, 143B WT Cybrid, and MEFs and 3E4 cells for 143B CytB and U87 cells. The following day, one plate of cells was counted to determine the initial cell count at the time of treatment. Cells were washed 2 times with 2 mL phosphate buffered saline (PBS) and 4 mL media premixed with the indicated treatments was added. FL5.12 cells, a suspension cell line, were washed 2 times in PBS and added directly to media containing the indicated treatments and 5 μg/mL recombinant mouse IL-3. Proliferation rate assay media was DMEM without pyruvate containing 10% dialyzed FBS, penicillin-streptomycin, and 0.1 mg/mL uridine, unless otherwise noted. For these cell lines at these seeding densities it was determined that for 4 days the cells maintained logarithmic proliferation (data not shown), therefore final cell counts were measured 4 days after treatment. Cells were counted using Cellometer Auto T4 Plus Cell Counter (Nexcelom Bioscience). Proliferation rate was determined using the following formula: Proliferation Rate (Doublings per day)=(log2(Final cell count (day 5)/Initial cell count (day 1))/4 (days)

143B cells [3] = assay: Mitochondrial oxygen consumption (Seahorse XF24), cells treated with respiration inhibitors; format: cell-based; settings: oligomycin with or without FCCP
Experimental: Oxygen consumption rates were determined on a Seahorse Bioscience Extracellular Flux Analyzer (XF24). Cells were plated in Seahorse Bioscience 24 well plates at 6E4 cells per well in 100 μL complete DMEM, allowed to attach for 1 hour, and 500 μl complete DMEM was added before overnight incubation. The following day cells were washed 2 times in assay media: DMEM without phenol red or pyruvate containing 0.5% dialyzed FBS and 0.1 mg/mL uridine at pH 7.4 and incubated in 500 μL of the same media for the assay.

143B cells [4] = assay: 13C asparagine labelling, GCMS of aspartate and released asparagine; format: cell-based
Experimental: FIG. 26. […] (A) Proliferation rate was measured after 4 days in DMEM without pyruvate and the indicated media conditions. Untr; Untreated. AKB; 1 mM alpha-ketobutyrate. Asp; 20 mM aspartate. Asn; asparagine, with the indicated concentrations. (B) GCMS measurement of intracellular levels of aspartate after 24 hours from the indicated treatment conditions. Aspartate levels are shown as the log2 of the measured total ion count (TIC). (C) The proliferation rate from FIG. 26A and the aspartate levels from FIG. 26B were graphed against one another to show a correlation between aspartate levels and proliferation rate. Grey triangles are the untreated conditions, blue squares are the AKB conditions, and green dots are the 1 mM ASN conditions. (D) GCMS measurement of intracellular aspartate levels after a 24-hour incubation in untreated media or media treated with 1 mM ^13C asparagine. The bars are split to show the fraction of aspartate that is unlabeled (M+0) and the fraction of aspartate that is labeled with 4 ^13C carbons (M+4). (E) GCMS measurement of unlabeled (M+0) asparagine released into the media (de novo produced asparagine) after a 24-hour incubation in untreated media or media treated with 1 mM ^13C asparagine.
The mechanism by which extracellular asparagine treatment can restore intracellular aspartate levels was also investigated. First, we treated 143B cells with 1 mM asparagine containing four ^13C carbon atoms. […] The small fraction containing labeled aspartate was likely from ^13C aspartate contamination in the ^13C asparagine added to the media. […] One plausible mechanism by which providing the cells with extracellular asparagine would decrease intracellular aspartate consumption is through product inhibition of asparagine synthetase (ASNS) activity. Decreased ASNS activity would decrease aspartate consumption and therefore increased aspartate levels. To test this, we measured the release of unlabeled asparagine in the media of untreated cells or cells treated with 1 mM ^13C asparagine. […]

143B cells [5] = assay: Amino acid and TCA cycle metabolite GC-MS analysis, 143B cells; format: cell-based; settings: for TCA metabolite, aspartate and glutamate pool sizes: wild-type 143B cells, respiration inhibitor alone
Experimental: 143B and 143B CytB cells were seeded at 400,000 cells/well in 6 well dishes overnight. The following day, cells were washed 2 times in PBS and media was changed to proliferation assay media with or without the indicated treatments. […] Soluble content was then dried under nitrogen gas. Polar samples were derivatized and measured as detailed in (Lewis). Relative metabolite abundances were determined by integrating ion peak area (Metran) and normalized to norvaline internal extraction standard.

143B CytB cells = assay: Proliferation assay of respiration-incompetent 143B CytB cybrid cells; format: cell-based; settings: media supplemented with the substance; no pyruvate unless tested, uridine present
Experimental: FL5.12 cells were cultured in the same medium and supplemented with 5 μg/mL recombinant mouse IL-3 (R&D Systems). […] All cells incubated at 37° C. with 5% CO2.
as §2, with “Initial seeding density was 2E4 cells per well for 143B, A172, H1299, HeLa, 143B WT Cybrid, and MEFs and 3E4 cells for 143B CytB and U87 cells.” left out, “For these cell lines at these seeding densities it was determined that for 4 days the cells maintained logarithmic proliferation (data not shown), therefore final cell counts were measured 4 days after treatment.” left out

[6] = system: A549 lung carcinoma xenografts; assay: A549 xenograft study with metformin; format: in vivo, nude mice
Experimental: FIG. 27. In vivo mitochondrial inhibition inhibits cellular proliferation and decreases intracellular growth rate. (A) A549 xenografts in nude mice were treated with varying doses of the mitochondrial inhibitor, metformin, once a day by oral gavage at the indicated concentrations. LCMS measurement of (B) serum and (C) tumor metformin concentration for the indicated metformin treatment conditions. (D) GCMS measurement of intracellular aspartate levels in the tumors following 10 days of the indicated treatment. Aspartate levels are shown as aspartate total ion count (TIC) normalized to leucine TIC.
An in vivo correlation between mitochondrial inhibition and growth inhibition, and further, a correlation between the degree of growth inhibition and intracellular aspartate levels were shown in a xenograft study. A549 lung carcinoma cells were xenografted into nude mice, and the cells were allowed to grow until they formed a tumor 50 mm^3 in volume. When the tumors reached 50 mm^3, the mice were randomly sorted into three groups and treated once a day by oral gavage with vehicle or the mitochondrial inhibitor metformin (500 mg/kg or 1500 mg/kg).

Jurkat cells = assay: Proliferation assay (Cell Titer Glo, 5 days) of wild type and knock-out Jurkat cells; format: cell-based, human; settings: 5-day treatment
Experimental: sgRNAs (oligonucleotide sequences are indicated above) were cloned into lentiCRISPR-v1 linearized with BsmBI by Gibson Assembly (NEB). sgRNA expressing vector along with lentiviral packaging vectors Delta-VPR and CMV VSVG were transfected into HEK-293T cells using the XTremeGene 9 transfection reagent (Roche). Similarly, for overexpression cell lines, cDNA vectors along with retroviral packaging vectors gag-pol and CMV VSV-G were transfected into HEK-293T cells. Media was changed 24 hours after transfection.

[7] = system: A172, H1299, HeLa, U87, FL5.12, and MEF cell lines; assay: Proliferation assay of a panel of cell lines treated with respiration inhibitors; format: cell-based; settings: respiration inhibitor alone
Experimental: as §1, §2

[8] = system: Raji lymphoma and KMS-26 multiple myeloma cells; format: cell-based, human; settings: 5-day treatment
Experimental: […]. Media was changed 24 hours after transfection.

[9] = 1 mM 13C asparagine, 24-hour incubation
[10] = metformin 500 mg/kg or 1500 mg/kg once a day by oral gavage

For `N#CC(C#N)=NNc1ccc(OC(F)(F)F)cc1` [FCCP, carbonyl cyanide-4-(trifluoromethoxy)phenylhydrazone, reference compound], the “NAD+/NADH ratio of oligomycin treated 143B cells” value (143B cells [1]) was “increased”, the “Proliferation rate of oligomycin treated 143B cells” value (143B cells [2]; oligomycin with or without FCCP) was “increased proliferation of oligomycin treated cells” and the “Oxygen consumption of oligomycin treated cells” value (143B cells [3]) was “increased”.

With `NC(=O)C[C@H](N)C(=O)O` [^13C asparagine] the Intracellular aspartate levels (143B cells [4]; [9]) was “did increase intracellular aspartate levels” and the “Labelling of intracellular aspartate pool” value (143B cells [4]; [9]) was “nearly all of the intracellular aspartate pool was unlabeled (M+0)”.

`NC(=O)C[C@H](N)C(=O)O` [asparagine] was tested, and the “Release of unlabeled (de novo produced) asparagine into the media” value (143B cells [4]; 1 mM 13C asparagine versus untreated, 24 hours) was “produce less asparagine”, the “Proliferation of rotenone treated 143B cells” value (143B cells [2]; high doses of rotenone) was “not able to restore proliferation” and the “Proliferation of rotenone treated 143B cells” value (143B cells [2]; low doses of rotenone) was “sufficient to restore proliferation; also recorded: restores intracellular aspartate levels and proliferation in rotenone treated cells”. For the same compound, the “Restoration of intracellular aspartate compared to AKB” value (143B cells [5]; rotenone treated 143B cells, 1 mM asparagine) was “incomplete compared to AKB” and the Intracellular aspartate levels (143B cells [5]; rotenone treated 143B cells, 24 hours, AKB or 1 mM asparagine) was “increased intracellular aspartate; also recorded: restores intracellular aspartate levels and proliferation in rotenone treated cells”.

In the case of `COC(=O)CCC(=O)C(=O)OC` [dimethyl α-ketoglutarate, reference compound], the “Proliferation rate of 143B CytB cells” value (143B CytB cells) is reported as “able to restore some proliferation to 143B CytB cells, albeit at a much lower capacity than aspartate”.

With `Nc1nc2nc[nH]c2c(=O)[nH]1` [guanine, reference compound] the “Proliferation rate of 143B CytB cells” value (143B CytB cells) was “somewhat toxic”.

`O=c1[nH]cnc2nc[nH]c12` [hypoxanthine, reference compound] was tested, and the “Proliferation rate of 143B CytB cells” value (143B CytB cells) was “no effect on proliferation”.

`CN(C)C(=N)N=C(N)N` [metformin] was tested, and the “Normalized intracellular aspartate levels in tumors” value ([6]; 10 days of treatment, aspartate TIC normalized to leucine TIC) was “decrease in a dose-dependent manner”, the “Tumor concentration of metformin” value ([6]; escalating doses of metformin) was “increased tumor concentration of metformin” and the “Serum concentrations of metformin” value [6, 10] was “at concentrations that would be therapeutically relevant and tolerable in humans”. The Tumor growth [6, 10] was “dose dependently inhibited tumor growth” and the “Sensitivity of GOT1-null versus wild-type cells to other ETC inhibitors” value (Jurkat cells) was “substantially more sensitive; also recorded: GOT1-null cells die”.

`CC[C@H]1/C=C/C=C/C[C@@H](C)[C@H](O)[C@@](C)(O)C(=O)[C@@H](C)[C@H](O)[C@@H](C)C(=O)[C@@H](C)[C@H](O)[C@@H](C)/C=C/C(=O)O[C@@H]2[C@H](C)[C@H](CC1)O[C@]1(CC[C@H](C)[C@H](C[C@@H](C)O)O1)[C@H]2C` [oligomycin, reference compound] was tested, and the “Proliferation of cell line panel” value [7] was “blocked proliferation” and the “TCA metabolite, aspartate and glutamate pool sizes” value (shortened to “TCA metabolite”) (143B cells [5]) was “decreases in TCA metabolites and aspartate, but not glutamate”.

`C/C=C(\C)[C@H](O)[C@H](C)/C=C(C)/C=C/C/C(C)=C/Cc1nc(OC)c(OC)c(O)c1C` [piericidin, reference compound] was tested, and the “Viability of GOT1-null KMS-26 and Raji cells with other mitochondrial toxins” value [8] was “GOT1-null KMS-26 and Raji cells die” and the “Sensitivity of GOT1-null versus wild-type cells to other ETC inhibitors” value (Jurkat cells) was “GOT1-null cells die; also recorded: substantially more sensitive”.

In the case of `C=C(C)[C@H]1Cc2c(ccc3c2O[C@@H]2COc4cc(OC)c(OC)cc4[C@@H]2C3=O)O1` [rotenone, reference compound], the “Proliferation of cell line panel” value [7] is reported as “blocked proliferation” and the “TCA metabolite” value (143B cells [5]) is reported as “decreases in TCA metabolites and aspartate, but not glutamate”.

With antimycin [reference compound] the “Proliferation of cell line panel” value [7] was “blocked proliferation”, the “Viability of GOT1-null KMS-26 and Raji cells with other mitochondrial toxins” value [8] was “GOT1-null KMS-26 and Raji cells die” and the “TCA metabolite” value (143B cells [5]) was “decreases in TCA metabolites and aspartate, but not glutamate”. The “Sensitivity of GOT1-null versus wild-type cells to other ETC inhibitors” value (Jurkat cells) was “GOT1-null cells die; also recorded: substantially more sensitive”.
